# Assay results published in patent US20260053731A1, “MICRONEEDLE PARTICLES FOR ENHANCED TOPICAL TRANSDERMAL DRUG DELIVERY” (BONSENS AB, priority 2023, published 2026).
# Test: Adverse effects of daily treatment in tumor-bearing mice (weight, skin histology)
# Format: in vivo, hairless NMRI Nude mice
# Experimental: For hematoxylin/eosin staining (H&E), skin was isolated, immediately fixed in PFA (4% paraformaldehyde in PBS) overnight at room temperature, and then transferred to 70% ethanol prior to paraffin embedding and sectioning. Then, skin sections (8 μm) were stained with hematoxylin for 3 min after rehydration, rinsed for 10 min in running tap water and then stained for 1 min in eosin solution before being mounted on Fluoromount (DAKO). Whole slide pictures were taken by Olympus Slide View VS200 at Histological Core facility—HistoCore, Karolinska Institutet, Sweden, processed, and analyzed by OlyVIA software.
# The mice were monitored for signs of discomfort (hunched posture, immobility, >10% weight loss) throughout the duration of the experiment as per ethics application.
# In vivo experimentation was performed by inducing subcutaneous GTML2 tumors in mice through injecting a Tet-Off transgenic doxycycline-dependent murine cell line 40 into the flanks. […] Mice were monitored daily and were visualized with IVIS under tumor suspicion. […] Tumors were monitored and measured by IVIS imaging and by vernier calliper every week until the end of the experimentation. When measuring using a Vernier calliper, tumor volumes were calculated from the ellipsoid formula: V=4/3 πWLD. […]
structure (smiles),measurement,setting,value
"C[C@H]1c2cccc(O)c2C(=O)C2=C(O)[C@]3(O)C(=O)C(C(N)=O)=C(O)[C@@H](N(C)C)[C@@H]3[C@@H](O)[C@@H]21 [Doxycycline, doxycycline]",weight of mice,"long term oral doxycycline in drinking water, compared to plain water control group",slower increase in their weight
same,weight of mice,"topical skin treatment, 11 weeks",did not alter the weight of the mice
